The subject of one data set is hexaarginine (R6). Description: Indicator displacement assay with host:LCG reporter pair, guest R6. Format: binding. Conditions: association constant, competitive dye displacement with LCG, 5 mM phosphate buffer pH 7.3; only the lower limit can be estimated. The text has this: The binding affinity of the anionic calixarene activators toward cationic peptides was investigated using a small library of highly hydrophilic oligoarginines, from 3 to 8 residues. These peptides are not able to spontaneously transverse zwitterionic artificial membranes in vesicle assays, which allows the accurate evaluation of the calixarenes 1 and 2 as counterion activators without interferences from the transport of the peptide alone.[43]−[45] First, the formation of host–guest complexes between 1/2 and the selected peptides was verified by indicator displacement assays using lucigenin (LCG) as the fluorescent indicator.[46] As previously reported for other sulfonatocalixarene derivatives,[46] the formation of host–guest binding pairs between calixarenes 1/2 in the E- and Z-forms and LCG results in significant static fluorescence quenching (see Figure 2A and Figures S26 and S27). Quantitative analysis of the fluorescence titration data using a 1:1 host:guest binding model allows the determination of the respective binding constants (K) reported in Table 1. As can be observed, both 1/2 display high affinity for the LCG dye, on the 10^7 M^–1 range, which seems to be independent of the nature and conformation of the azobenzene arm. […] The host:LCG binding pairs were then employed in the above-mentioned indicator displacement assays to investigate the binding affinity of oligoarginines toward 1 and 2 (see Figure 2B and Figures S29–S33).
Figure 2 (A) Fluorescence titration of the lucigenin dye (LCG, 1.5 μM) with increasing concentrations of E-2 in water (5 mM phosphate buffer, pH 7.3). […]
The binding affinities of the counterion activators and peptide complexes were analyzed by indicator displacement assays. […] Firstly, the affinity for LCG was calculated for each of the activators, by titrations followed by fluorescence spectroscopy leading to almost full quenching of the emission. […]
Figure S26 - Fluorescence titration of the lucigenin dye with increasing concentrations of A) E-1 and B) Z–1 in water (5 mM phosphate buffer pH 7.3). […]

The test system of another data set is HeLa cells. Description: MTT viability assay. The data set is classed as cell-based. Conditions: 24 h of incubation, 4-parameters logistic fit, triplicate, read-out: IC50 cytotoxicity. Here is the method: Success in artificial vesicle assays encouraged us to conduct transport experiments of fluorescently labeled peptides in living cells (Figure 5). We first employed confocal fluorescence microscopy to evaluate counterion activator 2 for the intracellular transport of a carboxytetramethylrhodamine-labeled R8 peptide (TAMRA-R8) into the cytosol of HeLa cells. Cationic peptides usually remain trapped inside the endosomes when incubated with cells at low μM concentrations.[32],[44] […] The cytometry experiments validated the E isomer selective transport and indicated a four-fold intracellular delivery enhancement (Figure 5C and Figure S52). […]
measured on a Guava easyCyte BG HT collecting the emission at 583/26 nm (Yellow-G channel), using InCyte v3.2 (GuavaSoft, Millipore). Cells with typical FSC and SSC parameters were selected and the mean fluorescence intensity was calculated for each sample. Each condition was measured in quadruplicate. […]
Afterwards, samples were removed and replaced with 100 µL of fresh complete DMEM supplemented with 0.5 mg/mL MTT. […] The absorbance at 570 nm was measured with a plate reader (Tecan Infinite F200Pro) and the data normalized to the value of untreated cells (100% viability), after blank subtraction (cells previously treated with Triton X-100). Each condition was measured in triplicate. […]
For orientation: Tetrazolium dyes change colour on reduction, which living cells bring about.

The structures appear in SMILES notation.

Take `O=S(=O)([O-])c1cc2c(O)c(c1)Cc1cc(S(=O)(=O)[O-])cc(c1O)Cc1cc(S(=O)(=O)[O-])cc(c1OCCCCCCOc1ccc(/N=N/c3ccccc3)cc1)Cc1cc(S(=O)(=O)[O-])cc(c1O)C2.[Li+].[Li+].[Li+].[Li+]` [E-1]: the “Apparent affinity constant K for R6” value in the data set with hexaarginine (R6) is listed as >5 × 10^8 ^a M^–1.

By IC50 is commonly meant the concentration that inhibits the measured activity by half. With `CCCCc1ccc(/N=N/c2ccc(OCCCOc3c4cc(S(=O)(=O)[O-])cc3Cc3cc(S(=O)(=O)[O-])cc(c3O)Cc3cc(S(=O)(=O)[O-])cc(c3O)Cc3cc(S(=O)(=O)[O-])cc(c3O)C4)cc2)cc1.[Li+].[Li+].[Li+].[Li+]` [E-2], the “Apparent affinity constant K for R6” value in the data set with hexaarginine (R6) is >5 × 10^8 ^a M^–1. Besides, the concentration for half-maximal inhibition (IC50) in the data set with HeLa cells was determined as 16.9 µM. In the case of `CCCCc1ccc(/N=N\c2ccc(OCCCOc3c4cc(S(=O)(=O)[O-])cc3Cc3cc(S(=O)(=O)[O-])cc(c3O)Cc3cc(S(=O)(=O)[O-])cc(c3O)Cc3cc(S(=O)(=O)[O-])cc(c3O)C4)cc2)cc1.[Li+].[Li+].[Li+].[Li+]` [Z-2], the half-inhibitory concentration (IC50) in the data set on HeLa cells turned out to be 19.2 µM.

These data come from publication PMC10288505, “Photoswitchable Calixarene Activators for Controlled Peptide Transport across Lipid Membranes” (Journal of the American Chemical Society, 2023).
